# Reference: EP0097071A1, “Benzhydryl sulfinylacetamide derivatives and their therapeutical use” (LABORATOIRE L. LAFON Société anonyme dite:, priority 1982, dated 1983)
# What was measured:
# Format in all cases: in vivo
# souris [1] = assay: Asphyxic anoxia (gallamine triethiodide); details: 64 mg/kg et 256 mg/kg i.p.
# Protocol: (§1) On a résumé ci-après les résultats des essais pharmacologiques qui ont été entrepris avec les produits selon la présente addition. Dans ces essais, les produits de formule I à étudier ont été administrés par voie intrapéritonéale, en suspension dans une solution aqueuse de gomme arabique, sous un volume de 20 ml/kg chez la souris mâle et sous un volume de 5 ml/kg chez le rat mâle.
# Des lots de 10 souris par dose reçoivent le CRL 40933 30 min avant l'administration intrapéritonéale de 32 mg/kg de triiodoéthylate de gallamine.
# souris [2] = assay: Motility reduced by habituation to the enclosure
# Protocol: as §1
# Après 18 h de séjour dans les actimètres, les souris (6 par dose, 12 témoins) reçoivent le CRL 40933. Elles sont aussitôt replacées dans leurs enceintes respectives et, 30 min plus tard, on enregistre leur motilité pendant 30 min.
# souris mâles = assay: Global behaviour and reactivities, mouse; details: souris
# Protocol: as §1
# (§2) Pour apprécier le comportement global et les réactivités, des lots de six animaux (souris mâles ou rats mâles) ont été observés avant administration de chaque produit, puis 15 min, 30 min, 1 h, 2 h, 3 h et 24 h après administration de chaque produit. Les résultats sont consignés dans le tableau III ci-après, […]
# SNC = assay: Essential activity on the CNS (Tableau I and conclusions of the neuropsychopharmacological study); details: in vivo
# Source text: Dans le tableau I ci-après, on a consigné un certain nombre de composés selon la formule I de façon nullement limitative, en mentionnant l'activité essentielle sur le SNC.
# Les composés de formule I agissent tous sur le SNC. Les produits des exemples 1-3 et 7-8 sont des agents stimulants, en revanche les produits des exemples 4-6 sont des agents sédatifs.
# souris [3] = assay: Spontaneous motility (actimeter)
# Protocol: as §1
# Une demi-heure, après avoir reçu le CRL 40933, les souris (6 par dose, 12 témoins) sont placées en actimètre où leur motilité est enregistrée pendant 30 min.
# souris mâle [4] = assay: Toxicity, DL-0; details: i.p.
# Protocol: as §1
# La toxicité a été étudiée chez la souris mâle. Les résultats relatifs à la DL-0 (dose minimale non mortelle) sont donnés dans le tableau II ci-après.
# rats = assay: Interaction with amphetamine (stereotypies); details: rat; 8 mg/kg à 128 mg/kg i.p.
# Protocol: as §1
# L'amphétamine (2 mg/kg)est injectée par voie intrapéritonéale à des lots de 6 rats, 30 min après l'administration de CRL 40933.
# souris [5] = assay: Traction test; details: 0,5 h after administration, dose not stated
# Protocol: as §1
# (§3) Les essais sont effectués sur des lots de 10 souris (par dose) 0,5 h après l'administration du CRL 40933.
# souris [6] = assay: Interaction with oxotremorine
# Protocol: as §1
# Le CRL 40933 est administré à des lots de 6 souris 0,5 h avant l'injection intrapéritonéale de 0,5 mg/kg d'oxotrémorine.
# homme = assay: Clinical trials; details: for résultats en tant que médicaments de l'éveil: notamment vieillard, gélules ou comprimés de 100 à 200 mg, 1 à 3 par jour
# Source text: Les études cliniques ont porté sur les troubles de la vigilance, de l'éveil et des états confusionnels, d'une part, et sur les troubles de l'affectivité, du contact et des dépressions, d'autre part.
# souris mâle [7] = assay: Pentobarbital-induced sleep duration
# Source text: Les composés selon l'invention se distinguent du benzhydrylsulfinylacétamide (CRL 40476) précité par une différence d'action vis-à-vis du sommeil barbiturique. […]. Cette différence d'action qui est intéressante sur le plan thérapeutique est illustrée par le tableau IV
# rat = assay: Interaction with apomorphine, rat; details: apomorphine 0,5 mg/kg s.c., dose not stated
# Protocol: as §1
# Le CRL 40933 est administré à des lots de 6 rats 0,5 h avant l'injection sous-cutanée de 0,5 mg/kg d'apomorphine.
# souris [8] = assay: Intergroup aggressiveness; details: dose not stated
# Protocol: as §1
# Après avoir séjourné pendant 3 semaines dans chacune des moitiés d'une cage séparées par une cloison opaque, des groupes de 3 souris reçoivent le CRL 40933. 30 min plus tard, les deux groupes d'une même cage sont réunis par retrait de la cloison et on note le nombre de combats qui surviennent en 10 min.
# souris [9] = assay: Interaction with barbital (sleep)
# Protocol: as §1
# Une demi-heure après l'administration de CRL 40933, des lots de 10 souris reçoivent une injection intrapéritonéale de 220 mg/kg de barbital.
# souris [10] = assay: Four plates test
# Protocol: as §1, §3
# souris [11] = assay: Interaction with reserpine
# Protocol: as §1
# Quatre heures après l'injection intrapéritonéale de 2,5 mg/kg de réserpine, des lots de 6 souris reçoivent le CRL 40933.
# souris [12] = assay: Behavioural despair (forced immersion); details: souris
# Protocol: as §1
# Une demi-heure après avoir reçu le CRL 40933, des lots de 10 souris par dose sont placés dans un espace restreint rempli d'eau sur une hauteur de 6 cm; on note la durée d'immobilité entre la 2e et la 6e minute suivant l'immersion.
# rats mâles = assay: Global behaviour and reactivities, rat
# Protocol: as §1, §2
# souris [13] = assay: Interaction with apomorphine, mouse
# Protocol: as §1
# Des lots de 6 souris par dose reçoivent le CRL 40933 0,5 h avant l'injection sous-cutanée d'apomorphine administrée à la dose de 1 ou 16 mg/kg.
# souris [14] = assay: Electroshock
# Protocol: as §1, §3
# souris [15] = assay: Motility reduced by hypoxic aggression (acute hypobaric anoxia); details: 64 mg/kg et surtout 256 mg/kg i.p.
# Protocol: as §1
# Une demi-heure après avoir reçu le CRL 40933, les souris (10 par dose, 20 témoins) sont soumises à une anoxie hypobare aiguë [dépression de 600 mm Hg (soit environ 8 x 10^4 pascals) en 90 s, puis détente de 45 s], puis elles sont placées en actimètre où leur motilité est enregistrée pendant 10 min.
# [16] = 16 mg/kg, 64 mg/kg et 256 mg/kg i.p.
structure (smiles),measurement,setting,value
CC(C)NC(=O)C[S+]([O-])C(c1ccccc1)c1ccccc1 (stereo not shown) [Exemple 2],apparition des convulsions anoxiques provoquées par le triiodoéthylate de gallamine,souris [1],retarde modérément
same,activité chez la souris habituée à son enceinte,"souris [2]; 4 mg/kg, 64 mg/kg et 256 mg/kg i.p.",semble provoquer une reprise de l'activité
same,reprise de l'activité chez la souris habituée à son enceinte,souris [2]; intermediate dose 16 mg/kg i.p.,n'est pas observé
same,hypothermie modérée,"souris mâles; 256 mg/kg i.p., pendant 0,5 h",-1 °C
same,Observations (comportement global et réactivités),souris mâles; 512 mg/kg i.p.,"respiration déprimée, dyspnée, sédation, diminution de la réactivité au toucher, puis excitation au bout de 3 h"
same,mortalité,souris mâles; 512 mg/kg i.p.,pas de mortalité
same,Observations (comportement global et réactivités),souris mâles; 128 mg/kg i.p.,"sédation, puis excitation 3 h après admi-nistration"
same,Observations (comportement global et réactivités),souris mâles; 256 mg/kg i.p.,"sédation pendant 0,5 h avec diminution de la fréquence respiratoire - hyporéactivité au toucher pendant 2 h - hypothermie modérée (-1°C) pendant 0,5 h - excitation 3 h après administration"
same,Activité sur le SNC,SNC,stimulant
same,conclusion of the neuropsychopharmacological study: main type of CNS effect,SNC,agent psychotrope
same,motilité spontanée,souris [3]; 256 mg/kg i.p.,hypermotilité nette
same,DL-O,souris mâle [4],supérieure à 512 mg/kg
same,stéréotypies amphétaminiques,rats,semble potentialiser faiblement
same,déficit moteur (traction),souris [5],ne provoque pas de déficit moteur majeur
same,"signes de stimulation cholinergique périphérique, notamment la défécation",souris [6]; 64 mg/kg à 256 mg/kg i.p.,semble entraîner une diminution
same,intensité des tremblements provoqués par l'oxotrémorine,souris [6]; 256 mg/kg i.p.,semble diminuer modérément
same,action hypothermisante de l'oxotrémorine,souris [6]; dose not stated,ne modifie pratiquement pas
same,action contre l'énurésie,homme,agissent efficacement
same,résultats en tant que médicaments de l'éveil,homme,excellents résultats
same,Action sur la durée du sommeil induit par le pentobarbital (50 mg/kg i.p.) effet,"souris mâle [7]; dose 256 mg/kg i.p., 0,5 h before pentobarbital",(a)
same,stéréotypies induites par l'apomorphine,rat,ne sont pas modifiées
same,agressivité intergroupes (nombre de combats),souris [8],diminue très modérément
same,durée du sommeil barbiturique,souris [9]; 256 mg/kg i.p.,diminue nettement
same,nombre de passages punis,"souris [10]; 0,5 h after administration, dose not stated",n'entraîne pas d'augmentation
same,ptôsis réserpinique,souris [11]; 256 mg/kg i.p.,diminue très modérément
same,durée d'immobilité,souris [12]; dès la dose de 16 mg/kg i.p.,diminue nettement
same,Observations (comportement global et réactivités),rats mâles; 128 mg/kg i.p.,mydriase pendant 3 h
same,comportement de verticalisation et stéréotypies (apomorphine),souris [13]; dose not stated,laisse inchangés
same,hypothermie produite par l'apomorphine,souris [13]; dose not stated,laisse inchangés
same,effets convulsivants de l'électrochoc,souris [14]; 64 mg/kg à 256 mg/kg i.p.,s'oppose
same,récupération motrice (motilité réduite par agression hypoxique),souris [15],amélioration nette
NC(=O)C[S+]([O-])C(c1ccccc1)c1ccc(F)cc1 (stereo not shown) [Exemple 9],activité motrice chez la souris habituée à son enceinte,souris [2]; 64 mg/kg et 256 mg/kg i.p.,reprise de l'activité motrice
same,Observations (comportement global et réactivités),souris mâles; 16 mg/kg i.p.,excitation pendant 1 h pour 33 % des animaux
same,excitation,"souris mâles; 16 mg/kg i.p., pendant 1 h",33 % des animaux
same,Observations (comportement global et réactivités),souris mâles; 64 mg/kg i.p.,"excitation apparaissant en 30 minutes, maximale après 2 h et durant 24 h - apparition tardive (2-3 h)- 4 mouvements stéréotypés de faible intensité - réactivité au toucher pendant 2-3 h"
same,Observations (comportement global et réactivités),souris mâles; 256 mg/kg i.p.,excitation apparaissant en 30 minutes et maximale 2 à 3 h après administration - présence de stétréotypies nettes mais tardives - réactivité au toucher pendant 3 h
same,Activité sur le SNC,SNC,stimulant
same,conclusion of the neuropsychopharmacological study: main type of CNS effect,SNC,effet stimulant du SNC qui est essentiel
same,conclusion: effets de type antidépresseur,SNC,à forte dose seulement un effet antidépresseur du SNC
same,durée de l'hypermotilité,souris [3],≥ 4 h
same,time of maximal hypermotility after administration,souris [3],"0,5 h"
same,motilité spontanée,souris [3]; dès la dose de 16 mg/kg i.p.,pypermotilité
same,DL-O,souris mâle [4],supérieure à 512 mg/kg
same,déficit moteur (traction),souris [5],ne provoque pas de déficit moteur
same,signes de stimulation cholinergique périphérique dus à l'oxotrémorine,souris [6]; dose not stated,ne modifie pas
same,tremblements induits par l'oxotrémorine,souris [6]; dose not stated,n'est pratiquement pas modifiée
same,baisse de température provoquée par l'oxotrémorine,souris [6]; highest dose used,s'oppose
same,action contre l'énurésie,homme,agissent efficacement
same,résultats en tant que médicaments de l'éveil,homme,excellents résultats
same,Action sur la durée du sommeil induit par le pentobarbital (50 mg/kg i.p.) effet,"souris mâle [7]; dose 16 mg/kg i.p., 0,5 h before pentobarbital",(a)
same,durée du sommeil barbiturique,souris [9]; [16],diminue nettement
same,passages punis,souris [10]; 64 et 256 mg/kg i.p.,nette augmentation
same,hypothermie réserpinique,"souris [11]; 256 mg/kg i.p., 1,5 h",s'oppose tardivement
same,ptosis réserpinique,"souris [11]; 256 mg/kg i.p., 24 h",s'oppose tardivement
same,durée d'immobilité,souris [12]; [16],diminue fortement
same,Observations (comportement global et réactivités),rats mâles; 8 mg/kg i.p.,"hyporéactivité fugace (0,5 h) et diminution du tonus musculaire"
same,Observations (comportement global et réactivités),rats mâles; 32 mg/kg i.p.,"diminution fugace (0,5 h) de la réactivité au toucher et du tonus musculaire"
same,Observations (comportement global et réactivités),rats mâles; 128 mg/kg i.p.,"excitation pendant 2 h avec hyper-réactivité au toucher pendant 0,5 h"
same,action hypothermisante de l'apomorphine,souris [13]; 256 mg/kg i.p.,s'oppose
same,comportement de verticalisation et stéréotypies (apomorphine),souris [13]; 256 mg/kg i.p.,sans modifier
same,effets convulsivants de l'électrochoc,souris [14]; 256 mg/kg i.p.,s'oppose partiellement
